Test results as given in PubChem BioAssay AID1918994 (Molecular Pharmacology Branch, DTP, NCI, 2023).
“And” between values parts separate entries of the source, which are not always exact repeats. Equal values may be shown once.

System: 292921-168-R-J2-PDC complex spheroid growth
Assay: Anticancer human tumor 292921-168-R-J2-PDC patient-derived pancreatic carcinoma cell line growth inhibition [AhR]
Conditions: for viability, T/C: stronger effect = lower value
Summary of the method: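 Complex tumor spheroids co-cultured with HUVEC and human MSC stroma; AhR antagonists tested in combination with standard-of-care and investigational agents. Top concentration at or near clinical Cmax (else 10 microM), half-log dilutions; growth expressed as percent test/control.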

[1] = curve of first compound, second compound 0.1 µM
[2] = curve of first compound, second compound 0.316 µM
[3] = curve of first compound, second compound 1 µM
[4] = curve of first compound, second compound 3.16 µM
[5] = curve of first compound, second compound 10 µM
[6] = second compound 0.1 µM, first compound 0.0316 µM
[7] = second compound 0.1 µM, first compound 0.1 µM
[8] = second compound 0.1 µM, first compound 0.316 µM
[9] = second compound 0.1 µM, first compound 1 µM
[10] = second compound 0.1 µM, first compound 3.16 µM
[11] = second compound 0.1 µM, first compound 10 µM
[12] = second compound 0.316 µM, first compound 0.0316 µM
[13] = second compound 0.316 µM, first compound 0.1 µM
[14] = second compound 0.316 µM, first compound 0.316 µM
[15] = second compound 0.316 µM, first compound 1 µM
[16] = second compound 0.316 µM, first compound 3.16 µM
[17] = second compound 0.316 µM, first compound 10 µM
[18] = second compound 1 µM, first compound 0.0316 µM
[19] = second compound 1 µM, first compound 0.1 µM
[20] = second compound 1 µM, first compound 0.316 µM
[21] = second compound 1 µM, first compound 1 µM
[22] = second compound 1 µM, first compound 3.16 µM
[23] = second compound 1 µM, first compound 10 µM
[24] = second compound 3.16 µM, first compound 0.0316 µM
[25] = second compound 3.16 µM, first compound 0.1 µM
[26] = second compound 3.16 µM, first compound 0.316 µM
[27] = second compound 3.16 µM, first compound 1 µM
[28] = second compound 3.16 µM, first compound 3.16 µM
[29] = second compound 3.16 µM, first compound 10 µM
[30] = second compound 10 µM, first compound 0.0316 µM
[31] = second compound 10 µM, first compound 0.1 µM
[32] = second compound 10 µM, first compound 0.316 µM
[33] = second compound 10 µM, first compound 1 µM
[34] = second compound 10 µM, first compound 3.16 µM
[35] = second compound 10 µM, first compound 10 µM
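Also: spheroids exposed to compounds for seven days after three days of growth.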

Structure (SMILES): O=C(C=Cn1cnc(-c2cc(C(F)(F)F)cc(C(F)(F)F)c2)n1)NNc1cnccn1 + Cc1ccccc1N=Nc1ccc(NC(=O)c2ccnn2C)c(C)c1
- IC50 [1]: 0.194 µM
- IC50 [2]: 0.126 µM
- IC50 [3]: 0.115 µM
- IC50 [4]: 0.0764 µM
- IC50 [5]: 0.0291 µM
- viability, T/C (second compound 0.1 µM, first compound 0.00949 µM): 88.1%
- viability, T/C (second compound 0.1 µM, first compound 0.03 µM): 84.6%
- viability, T/C (second compound 0.1 µM, first compound 0.0949 µM): 75.5%
- viability, T/C (second compound 0.1 µM, first compound 0.3 µM): 34.5%
- viability, T/C (second compound 0.1 µM, first compound 0.949 µM): 16%
- viability, T/C (second compound 0.1 µM, first compound 3 µM): 12%
- viability, T/C (second compound 0.316 µM, first compound 0.00949 µM): 95.8%
- viability, T/C (second compound 0.316 µM, first compound 0.03 µM): 77.9%
- viability, T/C (second compound 0.316 µM, first compound 0.0949 µM): 58.1%
- viability, T/C (second compound 0.316 µM, first compound 0.3 µM): 31%
- viability, T/C (second compound 0.316 µM, first compound 0.949 µM): 14.9%
- viability, T/C (second compound 0.316 µM, first compound 3 µM): 9.51%
- viability, T/C (second compound 1 µM, first compound 0.00949 µM): 78.1%
- viability, T/C (second compound 1 µM, first compound 0.03 µM): 61.8%
- viability, T/C (second compound 1 µM, first compound 0.0949 µM): 57.9%
- viability, T/C (second compound 1 µM, first compound 0.3 µM): 30.6%
- viability, T/C (second compound 1 µM, first compound 0.949 µM): 13%
- viability, T/C (second compound 1 µM, first compound 3 µM): 9.8%
- viability, T/C (second compound 3.16 µM, first compound 0.00949 µM): 79.2%
- viability, T/C (second compound 3.16 µM, first compound 0.03 µM): 64%
- viability, T/C (second compound 3.16 µM, first compound 0.0949 µM): 48.2%
- viability, T/C (second compound 3.16 µM, first compound 0.3 µM): 26.4%
- viability, T/C (second compound 3.16 µM, first compound 0.949 µM): 15.2%
- viability, T/C (second compound 3.16 µM, first compound 3 µM): 8.58%
- viability, T/C (second compound 10 µM, first compound 0.00949 µM): 59.8%
- viability, T/C (second compound 10 µM, first compound 0.03 µM): 50.8%
- viability, T/C (second compound 10 µM, first compound 0.0949 µM): 37.1%
- viability, T/C (second compound 10 µM, first compound 0.3 µM): 29.1%
- viability, T/C (second compound 10 µM, first compound 0.949 µM): 18%
- viability, T/C (second compound 10 µM, first compound 3 µM): 9.82%

Structure (SMILES): Nc1ccn(C2OC(CO)C(O)C2(F)F)c(=O)n1 (configuration not stated) + CC(CO)NC(=O)c1cc(-c2ccc(Cl)cc2)nn(-c2cnn(C)c2)c1=O
- IC50 [1]: < 0.0316 µM
- IC50 [2]: < 0.0316 µM
- IC50 [3]: < 0.0316 µM
- IC50 [4]: < 0.0316 µM
- IC50 [5]: < 0.0316 µM
- viability, T/C [6]: 11.7%
- viability, T/C [7]: 10.2%
- viability, T/C [8]: 11.1%
- viability, T/C [9]: 11.1%
- viability, T/C [10]: 10.3%
- viability, T/C [11]: 6.84%
- viability, T/C [12]: 11.8%
- viability, T/C [13]: 11.3%
- viability, T/C [14]: 9.79%
- viability, T/C [15]: 10.8%
- viability, T/C [16]: 11.9%
- viability, T/C [17]: 6.25%
- viability, T/C [18]: 12%
- viability, T/C [19]: 11.8%
- viability, T/C [20]: 11.7%
- viability, T/C [21]: 11.1%
- viability, T/C [22]: 11.9%
- viability, T/C [23]: 7.23%
- viability, T/C [24]: 12.2%
- viability, T/C [25]: 10.9%
- viability, T/C [26]: 12.2%
- viability, T/C [27]: 11%
- viability, T/C [28]: 10.5%
- viability, T/C [29]: 6.81%
- viability, T/C [30]: 14.2%
- viability, T/C [31]: 12.8%
- viability, T/C [32]: 11.9%
- viability, T/C [33]: 11.6%
- viability, T/C [34]: 10.3%
- viability, T/C [35]: 8.31%

Structure (SMILES): COc1cc(Nc2ncc3c(n2)-c2ccc(Cl)cc2C(c2c(F)cccc2OC)=NC3)ccc1C(=O)O + Cc1ccccc1N=Nc1ccc(NC(=O)c2ccnn2C)c(C)c1
- IC50 [1]: < 0.0316 µM
- IC50 [2]: < 0.0316 µM
- IC50 [3]: < 0.0316 µM
- IC50 [4]: < 0.0316 µM
- IC50 [5]: < 0.0316 µM
- viability, T/C [6]: 45.7%
- viability, T/C [7]: 37.9%
- viability, T/C [8]: 53.5%
- viability, T/C [9]: 45.1%
- viability, T/C [10]: 39.8%
- viability, T/C [11]: 29.1%
- viability, T/C [12]: 42.2%
- viability, T/C [13]: 42.6%
- viability, T/C [14]: 43%
- viability, T/C [15]: 41%
- viability, T/C [16]: 36.8%
- viability, T/C [17]: 30.3%
- viability, T/C [18]: 46.2%
- viability, T/C [19]: 34.2%
- viability, T/C [20]: 45.8%
- viability, T/C [21]: 42.7%
- viability, T/C [22]: 40.9%
- viability, T/C [23]: 24%
- viability, T/C [24]: 32.8%
- viability, T/C [25]: 35%
- viability, T/C [26]: 40.6%
- viability, T/C [27]: 36.5%
- viability, T/C [28]: 34.8%
- viability, T/C [29]: 23.1%
- viability, T/C [30]: 34%
- viability, T/C [31]: 35.5%
- viability, T/C [32]: 33.4%
- viability, T/C [33]: 33.8%
- viability, T/C [34]: 30%
- viability, T/C [35]: 20.5%

Structure (SMILES): O=C(c1cc(Cc2n[nH]c(=O)c3ccccc23)ccc1F)N1CCN(C(=O)C2CC2)CC1 + CC(CO)NC(=O)c1cc(-c2ccc(Cl)cc2)nn(-c2cnn(C)c2)c1=O
- IC50 [1]: > 10 µM
- IC50 [2]: > 10 µM
- IC50 [3]: > 10 µM
- IC50 [4]: > 10 µM
- IC50 [5]: > 10 µM
- viability, T/C [6]: 100%
- viability, T/C [7]: 96.1%
- viability, T/C [8]: 92.4%
- viability, T/C [9]: 98.8%
- viability, T/C [10]: 78.4%
- viability, T/C [11]: 64%
- viability, T/C [12]: 97.4%
- viability, T/C [13]: 98.4%
- viability, T/C [14]: 99.4%
- viability, T/C [15]: 90.1%
- viability, T/C [16]: 74.3%
- viability, T/C [17]: 66.7%
- viability, T/C [18]: 90.3%
- viability, T/C [19]: 103%
- viability, T/C [20]: 94.7%
- viability, T/C [21]: 90.2%
- viability, T/C [22]: 78.2%
- viability, T/C [23]: 66.2%
- viability, T/C [24]: 85.9%
- viability, T/C [25]: 86%
- viability, T/C [26]: 81.8%
- viability, T/C [27]: 83.7%
- viability, T/C [28]: 70.8%
- viability, T/C [29]: 55.9%
- viability, T/C [30]: 67.5%
- viability, T/C [31]: 62.8%
- viability, T/C [32]: 67.1%
- viability, T/C [33]: 63.4%
- viability, T/C [34]: 56.6%
- viability, T/C [35]: 49%

Structure (SMILES): Nc1ccccc1NC(=O)c1ccc(CNC(=O)OCc2cccnc2)cc1
- viability, T/C (compound 0.0316 µM): 76.9% and 70.7% and 72.6%
- viability, T/C (compound 0.1 µM): 61.6% and 61% and 53%
- viability, T/C (compound 0.316 µM): 44.2% and 57.2% and 42.1%
- viability, T/C (compound 1 µM): 38.7% and 39.4% and 26.1%
- viability, T/C (compound 3.16 µM): 24.4% and 26.4% and 21.3%
- viability, T/C (compound 10 µM): 11.8% and 10.3% and 8.62%
- IC50 (curve of compound): 0.267 µM and 0.46 µM and 0.151 µM
